Test [1] deals with T1, Hexokinase-4 (Homo sapiens, UniProt P35557).
T1 sequence (P35557 whole entry): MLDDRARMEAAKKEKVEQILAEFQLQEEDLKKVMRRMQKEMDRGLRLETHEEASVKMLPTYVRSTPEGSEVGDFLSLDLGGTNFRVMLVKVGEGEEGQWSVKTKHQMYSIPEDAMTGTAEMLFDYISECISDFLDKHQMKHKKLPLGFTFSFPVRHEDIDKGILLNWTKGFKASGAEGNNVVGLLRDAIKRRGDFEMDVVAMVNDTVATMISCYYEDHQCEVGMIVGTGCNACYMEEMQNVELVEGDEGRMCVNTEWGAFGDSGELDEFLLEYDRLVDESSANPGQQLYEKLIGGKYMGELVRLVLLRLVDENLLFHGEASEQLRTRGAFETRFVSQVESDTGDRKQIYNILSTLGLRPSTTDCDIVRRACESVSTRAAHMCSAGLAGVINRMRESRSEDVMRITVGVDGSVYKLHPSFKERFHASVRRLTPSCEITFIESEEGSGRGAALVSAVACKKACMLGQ
Kind of test: Activation of human recombinant glucokinase using 5 mM glucose as substrate in presence of NAD+ by glucose 6-phosphate dehydrogenase coupled assay.

For test [2], the target named is T1, Hexokinase-4. Kind of test: Activation of human recombinant glucokinase using 5 mM glucose as substrate in presence of NAD+ and 4% HSA by glucose 6-phosphate dehydrogenase coupled assay.

Structures are written as SMILES.

The values below come from BindingDB's records for doi:10.1021/acsmedchemlett.6b00145 (Amgen, 2016).

The EC50 is the concentration at which the effect is half-maximal. As to `CNC(=O)Nc1cc(Oc2cncc(OC)c2)c([C@@H]2COCC[C@@H]2O)cn1`, the results for the EC50 in test [1] and in test [2] were 940 nM and 920 nM, respectively.

Turning to `CNC(=O)Nc1cc(Oc2cncc(C)c2)c([C@H]2C[C@@H]2C(C)(C)O)cn1`, the concentration for a half-maximal effect (EC50) in test [1] was determined as 83 nM; in test [2] it was 130 nM.

Regarding `CNC(=O)Nc1cc(Oc2cncc(C)c2)c([C@@H]2CC[C@@H](O)C2)cn1`, the EC50 came out at 97 nM in test [1] and 190 nM in test [2].

For the compound `CNC(=O)Nc1cc(Oc2cncc(C)c2)c([C@H]2C[C@@H]2CO)cn1`, the EC50 is 130 nM in test [1] and 170 nM in test [2].
